This is an account of results in ChEMBL document CHEMBL1201862, “PubChem BioAssay data set” (2004).

Holding throughout (assay): inhibition of tumour cell growth, NCI panel, 48 h
The test system of experiment [1] is LOX IMVI.
Experiment [2] relates to OVCAR-8.
The test system of experiment [3] is OVCAR-4.
Experiment [4] deals with NCI-H522.
Experiment [5] relates to K562.
The subject of experiment [6] is MOLT-4.
In experiment [7] the test system is M19-MEL.
Experiment [8] concerns NCI-H460.
The subject of experiment [9] is HOP-92.
The test system of experiment [10] is HCC 2998.
In experiment [11] the test system is SNB-19.
The test system of experiment [12] is SN12C.
In experiment [13] the test system is SF-539.
Experiment [14] relates to A549.
Experiment [15] deals with SK-MEL-5.
For experiment [16], the system named is Hs-578T.
For experiment [17], the system named is MDA-N.
The subject of experiment [18] is PC-3.
For experiment [19], the system named is SR.
The subject of experiment [20] is SK-OV-3.

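Test compounds were applied to cells in 96-well plates for 48 hours at 5 doses. Here, GI50 denotes the concentration required for 50% inhibition of growth.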 Active and inactive are the calls of the source. No stated cut-off is given here; in the data, active = GI50 up to about 1.1 µM and inactive = higher. Where a SMILES comes first, the peptide text is derived from it. [ ]: non-standard residue; d: D form. The star is where a group is joined. Cbz = O=C(OCc1ccccc1)*; Aib = CC(C)(N)C(=O)O; OBn = c1ccc(CO*)cc1 A value given as a limit tells only on which side of the number the result lay.

As to `CCOC(=O)C1S/C(=N\c2ccc(Cl)cc2)N=C1C` (stereo not given), the GI50 in experiment [1] was 18.6 µM (inactive); in experiment [2], 22.3 µM (inactive); in [3], 24.7 µM (inactive); in experiment [4] it was 17.3 µM (inactive); in [5], 19.4 µM (inactive); in experiment [6] it was 16.7 µM (inactive). In addition, the GI50 in [7] was 17.3 µM (inactive); in experiment [8], 23.6 µM (inactive); in [9], 15.9 µM (inactive); in experiment [10], 17.7 µM (inactive); in experiment [11] it was 19.2 µM (inactive); in experiment [12], 17.5 µM (inactive). Further, the GI50 is 17.9 µM (inactive) in [13] and 17.8 µM (inactive) in experiment [14].
As to `Cc1ccc2nc(-c3ccc(N)c(Br)c3)sc2c1`, the GI50 in experiment [1] is 13.2 µM (inactive); in experiment [15], 79.1 µM (inactive); in experiment [2], 48.2 µM (inactive); in experiment [3], 33.5 µM (inactive); in [4] it was 0.875 µM (active); in experiment [5] it was 17.4 µM (inactive). The GI50 in [6] is 4.33 µM (inactive); in [16] it was 14.2 µM (inactive); in experiment [8], 5.6 µM (inactive); in experiment [17] it was > 100 µM (inactive); in experiment [18], 22.2 µM (inactive); in experiment [9] it was 19.7 µM (inactive). Moreover, the GI50 was 2.64 µM (inactive) in experiment [10]; 11 µM (inactive) in experiment [19]; 81.8 µM (inactive) in experiment [11]; > 100 µM (inactive) in experiment [12]; 33.1 µM (inactive) in experiment [13]; 29 µM (inactive) in [14]. For the same molecule, in [20], the GI50 is 22.5 µM (inactive).
As to `O=C(O)CCc1ccc(-c2ccccc2)[nH]1`, the GI50 in [1], in experiment [15], in experiment [2], in [3], in experiment [4] and in experiment [5] was > 100 µM (inactive) each time. Also, the GI50 in experiment [6], in [16], in [8], in experiment [17], in experiment [18] and in experiment [9] was > 100 µM (inactive) throughout. The GI50 in experiment [10], in [19], in experiment [11], in [12], in [13] and in experiment [14] was > 100 µM (inactive) throughout. Also, the GI50 in [20] was > 100 µM (inactive).
Regarding `CC(=O)NC1C(OCc2ccccc2)OC(CO)C(O)C1OCC(=O)N[C@@H](C)C(=O)N[C@H](CCC(=O)NCCCCNc1c2ccccc2nc2cccc([N+](=O)[O-])c12)C(N)=O` (stereo not given in full), the GI50 in experiment [1] is 2.39 µM (inactive); in experiment [15] it was 0.516 µM (active); in experiment [2], 1.55 µM (inactive); in experiment [3], 0.957 µM (active); in experiment [4], 0.134 µM (active); in [5], 1.13 µM (inactive). For the same molecule, the GI50 in experiment [6] is 1.6 µM (inactive); in experiment [16] it was 3.1 µM (inactive); in experiment [8] it was 0.48 µM (active); in experiment [17] it was 1.64 µM (inactive); in experiment [18] it was 1.24 µM (inactive); in experiment [9], 0.748 µM (active). The GI50 was 0.682 µM (active) in experiment [10]; 1.07 µM (active) in [19]; 4.53 µM (inactive) in [11]; 2.25 µM (inactive) in [12]; 0.731 µM (active) in experiment [13]; 0.959 µM (active) in [14]. The GI50 in [20] is 7.59 µM (inactive).
Turning to `CC(NC(=O)C(C)(C)NC(=O)C(CC(=O)OCc1ccccc1)NC(=O)OCc1ccccc1)C(N)=O` (stereo not given) (Cbz-Asp(OBn)-[Aib]-Ala-NH2; configuration not given here), the GI50 in [1], in experiment [15], in experiment [2], in experiment [3], in [4] and in [5] was > 100 µM (inactive) each time. For the same molecule, the GI50 in experiment [6], in experiment [16], in [8], in [17], in experiment [18] and in [9] was > 100 µM (inactive) in each case. Also, the GI50 in experiment [10], in experiment [19], in experiment [11], in [12], in [13] and in experiment [14] was > 100 µM (inactive) each time. Further, the GI50 in experiment [20] is > 100 µM (inactive).
Consider `CCC(O)(Cc1ccc(OC)cc1)c1ccc(OC)cc1` (stereo not given), for which the GI50 in experiment [1] is > 100 µM (inactive); in [15], > 100 µM (inactive); in [2], > 100 µM (inactive); in experiment [3], 84.7 µM (inactive); in experiment [4] it was > 100 µM (inactive); in [5] it was > 100 µM (inactive). The GI50 in experiment [6], in experiment [16], in experiment [8], in experiment [17], in [18] and in experiment [9] was > 100 µM (inactive) in each case. The GI50 in experiment [10] was > 100 µM (inactive); in [19], 0.0641 µM (active); in experiment [11] it was > 100 µM (inactive); in [12], > 100 µM (inactive); in experiment [13], > 100 µM (inactive); in [14], > 100 µM (inactive). Also, the GI50 in experiment [20] is > 100 µM (inactive).
For the molecule `C/N=C/N(C)c1c2ccccc2nc2ccccc12`, the GI50 in [1], in experiment [15], in [2], in [3], in [4] and in [5] was > 100 µM (inactive) throughout. In addition, the GI50 was > 100 µM (inactive) in experiment [6]; > 100 µM (inactive) in experiment [16]; > 100 µM (inactive) in [8]; > 100 µM (inactive) in [17]; > 100 µM (inactive) in experiment [18]; 64.7 µM (inactive) in experiment [9]. For the same molecule, the GI50 in experiment [10], in [19], in experiment [11], in [12], in experiment [13] and in [14] was > 100 µM (inactive) each time. For the same molecule, the GI50 in experiment [20] was > 100 µM (inactive).
In the case of `N/N=C(\CC1OC(=O)c2ccccc21)c1ccco1` (stereo not given), the GI50 in experiment [1] was 80 µM (inactive); in [15], > 100 µM (inactive); in experiment [3], > 100 µM (inactive); in experiment [4] it was > 100 µM (inactive); in experiment [5], 50 µM (inactive); in experiment [6] it was > 100 µM (inactive). Also, the GI50 in experiment [7], in experiment [8], in experiment [9], in experiment [10], in experiment [11] and in experiment [13] was > 100 µM (inactive) in each case. Also, the GI50 in experiment [14] and in experiment [20] was > 100 µM (inactive) throughout.
With `COC(=O)C#CC1(O)C=CC(=O)C=C1`, the GI50 is 0.275 µM (active) in [1]; 1.72 µM (inactive) in [15]; 0.203 µM (active) in [2]; 3.13 µM (inactive) in [3]; 0.175 µM (active) in [4]; 0.392 µM (active) in experiment [5]. Further, the GI50 in [6] was 0.0933 µM (active); in [16], 2.79 µM (inactive); in [8], 2.71 µM (inactive); in experiment [17], 1.18 µM (inactive); in experiment [18], 1.29 µM (inactive); in experiment [9], 0.891 µM (active). Further, the GI50 in experiment [10] was 2.54 µM (inactive); in [19] it was 0.0519 µM (active); in [11] it was 4.63 µM (inactive); in [12] it was 0.789 µM (active); in experiment [13] it was 1.12 µM (active); in [14], 9.46 µM (inactive). The GI50 in experiment [20] is 28 µM (inactive).
As to `CCOc1ccc(NC(=O)/C(Cc2nc3ccccc3nc2O)=N\O)cc1`, the GI50 in experiment [1], in experiment [15], in experiment [2], in experiment [3], in [4] and in [5] was > 100 µM (inactive) in each case. Further, the GI50 was > 100 µM (inactive) in experiment [6]; > 100 µM (inactive) in [7]; > 100 µM (inactive) in experiment [8]; 54.2 µM (inactive) in experiment [9]; > 100 µM (inactive) in experiment [10]; > 100 µM (inactive) in experiment [11]. In addition, the GI50 in [13], in [14] and in experiment [20] was > 100 µM (inactive) in each case.
Turning to `CC(C)C(Nc1c2ccccc2[n+]([O-])c2ccccc12)C(=O)O` (stereo not given), the GI50 in experiment [1] was 50.9 µM (inactive); in experiment [15], 34.2 µM (inactive); in experiment [2] it was 53.2 µM (inactive); in experiment [3], 65.8 µM (inactive); in [4], 81.3 µM (inactive); in [5] it was 38.5 µM (inactive). The GI50 was 10 µM (inactive) in experiment [6]; 88.5 µM (inactive) in experiment [7]; > 100 µM (inactive) in experiment [8]; > 100 µM (inactive) in experiment [10]; > 100 µM (inactive) in experiment [11]; 61.1 µM (inactive) in experiment [12]. Further, the GI50 in experiment [14] and in experiment [20] was > 100 µM (inactive) throughout.
